These compounds were tested against ACL (Homo sapiens (Human), UniProt P53396) (assay: ADP-Glo Assay). Details: 3 nM ACL, 15 μM ATP, 3 μM CoA, 300 μM Citrate.
ACL, sequence (P53396 whole entry, species assumed): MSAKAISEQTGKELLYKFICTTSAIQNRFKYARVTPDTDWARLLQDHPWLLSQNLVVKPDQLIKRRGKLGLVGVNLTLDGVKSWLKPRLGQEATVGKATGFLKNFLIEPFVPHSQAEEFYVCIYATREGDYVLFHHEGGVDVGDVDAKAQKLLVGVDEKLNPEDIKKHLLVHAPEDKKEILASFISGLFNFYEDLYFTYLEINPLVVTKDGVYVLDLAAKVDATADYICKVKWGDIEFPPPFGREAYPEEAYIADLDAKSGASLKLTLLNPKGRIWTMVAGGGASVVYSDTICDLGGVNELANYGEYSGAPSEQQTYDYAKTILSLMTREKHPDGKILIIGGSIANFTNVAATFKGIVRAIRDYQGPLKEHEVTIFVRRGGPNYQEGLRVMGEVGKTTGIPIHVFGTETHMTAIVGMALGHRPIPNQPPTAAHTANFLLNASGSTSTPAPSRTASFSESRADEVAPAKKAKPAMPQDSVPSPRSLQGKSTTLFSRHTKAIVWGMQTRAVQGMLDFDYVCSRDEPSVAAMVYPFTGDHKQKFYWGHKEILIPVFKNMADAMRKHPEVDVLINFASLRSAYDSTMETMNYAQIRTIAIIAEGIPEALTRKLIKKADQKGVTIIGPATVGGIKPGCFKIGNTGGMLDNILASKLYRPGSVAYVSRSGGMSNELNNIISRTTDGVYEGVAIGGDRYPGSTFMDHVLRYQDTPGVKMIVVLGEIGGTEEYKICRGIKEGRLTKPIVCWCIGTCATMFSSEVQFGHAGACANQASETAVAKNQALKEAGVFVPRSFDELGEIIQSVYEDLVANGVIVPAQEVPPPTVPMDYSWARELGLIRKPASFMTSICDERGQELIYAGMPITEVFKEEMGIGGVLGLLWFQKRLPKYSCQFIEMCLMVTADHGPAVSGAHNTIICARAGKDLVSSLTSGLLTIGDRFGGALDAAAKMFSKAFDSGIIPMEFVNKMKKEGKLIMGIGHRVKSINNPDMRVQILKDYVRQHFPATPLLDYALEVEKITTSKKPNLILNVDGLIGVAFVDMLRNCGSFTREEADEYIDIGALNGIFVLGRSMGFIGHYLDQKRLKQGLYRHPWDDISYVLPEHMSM
Assay type: biochemical
Procedure: Example 28. ADP-Glo Assay
Compounds of the present invention were evaluated in an ADP-GLO assay as follows: a) Dilute cpd 1:3 in succession in DMSO by hand for each cpds for 12 pts b) Add 0.1 μL diluted cpd solution to assay plate, each dose with 2 replicates c) Centrifuge 1000 RPM for 1 min d) Add 5 μL ACL working solution to 384-well assay plate, centrifuge 1000 RPM for 1 min e) Incubate at 25° C. for 15 min f) Add 5 μL substrate working solution to initiate reaction g) Final ACL reaction concentrations: 3 nM ACL, 15 μM ATP, 3 μM CoA, 300 μM Citrate, 0.01% Brij35, 4 mM DTT, 1% DMSO; h) Reference final conc: 30 uM starting Conc, 3× dilution, 11+0 points. Test cpd conc: 30/100 uM starting Conc, 3× dilution, 11+0 points. i) Incubate at 25° C. for 60 min j) Add 10 μL ADP Glo reagent, centrifuge 1000 RPM for 1 min k) Incubate at 25° C. for 40 min l) Add 20 μL kinase detection reagent, centrifuge 1000 RPM for 1 min m) Incubate at 25° C. for 40 min n) Read on Envision for US LUM as RLU
With COC(=O)c1cc(Cl)c(O)c(S(=O)(=O)N2CCc3ccc(-c4ccccc4)cc32)c1 [I-2] the IC50 was 500 to 20000 nM. O=S(=O)(c1cc(Br)cc(Cl)c1O)N1CCc2ccc(-c3ccccc3)cc21 [I-3, 4-bromo-2-chloro-6-((6-phenylindolin-1-yl)sulfonyl)phenol] gave an IC50 of 500 to 20000 nM. With O=S(=O)(c1cc(Br)cc(Cl)c1O)n1ccc2ccc(-c3ccccc3)cc21 [I-4, 4-bromo-2-chloro-6-((6-phenyl-1H-indol-1-yl)sulfonyl)phenol] the IC50 was 500 to 20000 nM. Work on O=C(O)c1cc(Cl)c(O)c(S(=O)(=O)N2CCc3ccc(-c4ccccc4)cc32)c1 [I-5] yielded an IC50 of 500 to 20000 nM. In the case of O=S(=O)(c1cc(Cl)cc(Cl)c1O)N1CC2(CCOCC2)c2ccccc21 [I-6], the IC50 is reported as 500 to 20000 nM. Work on O=S(=O)(c1cc(Cl)cc(Cl)c1O)N1Cc2cnn(-c3ccccc3)c2C1 [I-7] yielded an IC50 of 500 to 20000 nM. Work on O=S(=O)(c1cc(Cl)cc(Cl)c1O)N1CCOC(COc2ccccc2)C1 (centres unmarked) [I-8] yielded an IC50 of 500 to 20000 nM. Compound O=S(=O)(c1cc(Cl)cc(Cl)c1O)N1CC(O)(c2ccc(Cl)cc2)C1 [I-9] has an IC50 of 500 to 20000 nM. Compound O=S(=O)(c1cc(Cl)cc(Cl)c1O)N1CCC(Oc2ccccc2)CC1 [I-10] has an IC50 of 500 to 20000 nM. For COc1ccc(C2CCN(S(=O)(=O)c3cc(Cl)cc(Cl)c3O)C2)cc1 (centres unmarked) [I-11], the IC50 was 500 to 20000 nM. O=S(=O)(c1cc(Cl)cc(Cl)c1O)N1CCC1c1ccccc1F (centres unmarked) [I-12] gave an IC50 of 500 to 20000 nM. Compound CC(=O)Nc1ccc2c(c1)CN(S(=O)(=O)c1cc(Cl)cc(Cl)c1O)CC2 [I-13] has an IC50 of 500 to 20000 nM. For C[C@@H]1CN(S(=O)(=O)c2cc(Cl)cc(Cl)c2O)C[C@H](C)O1 [I-14], the IC50 was 500 to 20000 nM. In the case of O=S(=O)(c1cc(Cl)cc(Cl)c1O)N1CC(c2nc3ccccc3s2)C1 [I-15], the IC50 is reported as 500 to 20000 nM. In the case of COc1ccc(N2CCN(S(=O)(=O)c3cc(Cl)cc(Cl)c3O)CC2)cc1 [I-16], the IC50 is reported as 500 to 20000 nM. Compound COc1ccc2c(c1)CCN2S(=O)(=O)c1cc(Cl)cc(Cl)c1O [I-17] has an IC50 of 500 to 20000 nM. O=S(=O)(c1cc(Cl)cc(Cl)c1O)N1CCC(Cc2ccccc2)C1 (centres unmarked) [I-18] gave an IC50 of 500 to 20000 nM. In the case of O=S(=O)(c1cc(Cl)cc(Cl)c1O)N1CC2(CCOCC2)C1c1ccccc1 (centres unmarked) [I-19], the IC50 is reported as 500 to 20000 nM. In the case of O=S(=O)(c1cc(Cl)cc(Cl)c1O)N1CCCCC1c1ccccc1 (centres unmarked) [I-22], the IC50 is reported as 500 to 20000 nM. For O=S(=O)(c1cc(Br)cc(Cl)c1O)n1c(-c2ccccc2)cc2ccccc21 [I-23, 4-bromo-2-chloro-6-((2-phenyl-1H-indol-1-yl)sulfonyl)phenol], the IC50 was 500 to 20000 nM. In the case of O=S(=O)(c1cc(Br)cc(Cl)c1O)n1c(-c2cncnc2)cc2cc(Cl)ccc21 [I-24, 4-bromo-2-chloro-6-((5-chloro-2-(pyrimidin-5-yl)-1H-indol-1-yl)sulfonyl)phenol], the IC50 is reported as < 500 nM. O=C(O)c1ccccc1-c1cc2cc(Cl)ccc2n1S(=O)(=O)c1cc(Br)cc(Cl)c1O [I-27, 2-(1-((5-bromo-3-chloro-2-hydroxyphenyl)sulfonyl)-5-chloro-1H-indol-2-yl)benzoic acid] gave an IC50 of 500 to 20000 nM. O=S(=O)(c1cc(Br)cc(Cl)c1O)n1c(-c2cncnc2)cc2ccccc21 [I-29, 4-bromo-2-chloro-6-((2-(pyrimidin-5-yl)-1H-indol-1-yl)sulfonyl)phenol] gave an IC50 of 500 to 20000 nM. For COc1ccc2c(c1)cc(-c1ccccc1)n2S(=O)(=O)c1cc(Br)cc(Cl)c1O [I-31, 4-bromo-2-chloro-6-((5-methoxy-2-phenyl-1H-indol-1-yl)sulfonyl)phenol], the IC50 was 500 to 20000 nM. In the case of O=S(=O)(c1cc(Cl)cc(Cl)c1O)n1c(-c2ccc(OC(F)(F)F)cc2)cc2cc(Cl)ccc21 [I-32, 2,4-dichloro-6-((5-chloro-2-(4-(trifluoromethoxy)phenyl)-1H-indol-1-yl)sulfonyl)phenol], the IC50 is reported as 500 to 20000 nM. For O=S(=O)(c1cc(Br)cc(Cl)c1O)n1c(-c2cccnc2)cc2cc(Cl)ccc21 [I-34], the IC50 was < 500 nM. Cc1ccccc1-c1cc2cc(Cl)ccc2n1S(=O)(=O)c1cc(Br)cc(Cl)c1O [I-35] gave an IC50 of 500 to 20000 nM. Cc1c(C)n(S(=O)(=O)c2cc(Br)cc(Cl)c2O)c2ccc(Cl)cc12 [I-36] showed an IC50 of 500 to 20000 nM. For CN(C)C(=O)c1cccc(-c2cc3cc(Cl)ccc3n2S(=O)(=O)c2cc(Br)cc(Cl)c2O)c1 [I-37], the IC50 was 500 to 20000 nM. Compound CN(C)C(=O)c1ccccc1-c1cc2cc(Cl)ccc2n1S(=O)(=O)c1cc(Br)cc(Cl)c1O [I-38] has an IC50 of 500 to 20000 nM. In the case of CC(C)(O)c1cc2cc(Cl)ccc2n1S(=O)(=O)c1cc(Br)cc(Cl)c1O [I-39], the IC50 is reported as 500 to 20000 nM. In the case of O=S(=O)(c1cc(Br)cc(Cl)c1O)n1c(C2CC2)cc2cc(Cl)ccc21 [I-41], the IC50 is reported as 500 to 20000 nM. Work on Cc1ccc2c(c1)cc(-c1ccccc1)n2S(=O)(=O)c1cc(Br)cc(Cl)c1O [I-43] yielded an IC50 of 500 to 20000 nM. With O=C(O)c1cccc(-c2cc3cc(Cl)ccc3n2S(=O)(=O)c2cc(Br)cc(Cl)c2O)c1 [I-44] the IC50 was < 500 nM. Compound O=C(O)c1ccc(-c2cc3cc(Cl)ccc3n2S(=O)(=O)c2cc(Br)cc(Cl)c2O)cc1 [I-45, 4-(1-((5-bromo-3-chloro-2-hydroxyphenyl)sulfonyl)-5-chloro-1H-indol-2-yl)benzoic acid] has an IC50 of 500 to 20000 nM. Compound Cc1c(-c2ccccc2)c2cc(Cl)ccc2n1S(=O)(=O)c1cc(Br)cc(Cl)c1O [I-46] has an IC50 of 500 to 20000 nM. O=S(=O)(c1cc(Br)cc(Cl)c1O)n1c(-c2ccc(OC(F)(F)F)cc2)cc2ccncc21 [I-49, 4-bromo-2-chloro-6-((2-(4-(trifluoromethoxy)phenyl)-1H-pyrrolo[2,3-c]pyridin-1-yl)sulfonyl)phenol] gave an IC50 of 500 to 20000 nM. In the case of CN(C)C(=O)c1ccc(-c2cc3cc(Cl)ccc3n2S(=O)(=O)c2cc(Br)cc(Cl)c2O)cc1 [I-50, 4-(1-((5-bromo-3-chloro-2-hydroxyphenyl)sulfonyl)-5-chloro-1H-indol-2-yl)-N,N-dimethylbenzamide], the IC50 is reported as 500 to 20000 nM. In the case of O=S(=O)(c1cc(F)cc(F)c1O)n1c(-c2ccc(OC(F)(F)F)cc2)cc2cc(Cl)ccc21 [I-51], the IC50 is reported as 500 to 20000 nM. In the case of O=C(c1cc(Cl)c(O)c(S(=O)(=O)n2c(-c3ccccc3)cc3cc(Cl)ccc32)c1)N1CCC1 [I-52, azetidin-1-yl(3-chloro-5-((5-chloro-2-phenyl-1H-indol-1-yl)sulfonyl)-4-hydroxyphenyl)methanone], the IC50 is reported as 500 to 20000 nM. COC(=O)c1ccc2c(c1)cc(-c1ccccc1)n2S(=O)(=O)c1cc(Br)cc(Cl)c1O [I-53] was tested, and the IC50 was 500 to 20000 nM. With O=S(=O)(c1cc(Cl)cc(Cl)c1O)n1c(-c2cccc(OC(F)(F)F)c2)cc2cc(Cl)ccc21 [I-54] the IC50 was 500 to 20000 nM. In the case of O=C(O)c1ccc2c(c1)cc(-c1ccccc1)n2S(=O)(=O)c1cc(Br)cc(Cl)c1O [I-55], the IC50 is reported as < 500 nM. In the case of CN(C)C(=O)c1ccc2c(c1)cc(-c1ccccc1)n2S(=O)(=O)c1cc(Br)cc(Cl)c1O [I-56], the IC50 is reported as 500 to 20000 nM. NC(=O)c1ccc2c(c1)cc(-c1ccccc1)n2S(=O)(=O)c1cc(Cl)cc(Cl)c1O [I-57] was tested, and the IC50 was 500 to 20000 nM. Work on O=C(O)c1ccc(-c2cc3cc(Cl)ccc3n2S(=O)(=O)c2cc(Cl)cc(Cl)c2)cc1 [I-58] yielded an IC50 of 500 to 20000 nM. Compound O=C(O)c1ccc(-c2cc3cc(Cl)ccc3n2S(=O)(=O)c2cc(Cl)cc(Cl)c2O)cc1 [I-59] has an IC50 of 500 to 20000 nM. CN(C)C(=O)c1ccc(-c2cc3cc(Cl)ccc3n2S(=O)(=O)c2cc(Cl)cc(Cl)c2O)cc1 [I-60] showed an IC50 of 500 to 20000 nM. O=S(=O)(c1cccc(Cl)c1O)n1c(-c2ccccc2)cc2cc(Cl)ccc21 [I-63] gave an IC50 of 500 to 20000 nM. For O=c1[nH]cc(Cl)cc1S(=O)(=O)n1c(-c2ccc(OC(F)(F)F)cc2)cc2cc(Cl)ccc21 [I-64, 5-chloro-3-((5-chloro-2-(4-(trifluoromethoxy)phenyl)-1H-indol-1-yl)sulfonyl)pyridin-2(1H)-one], the IC50 was 500 to 20000 nM. O=c1[nH]cc(Cl)cc1S(=O)(=O)n1c(-c2ccccc2)cc2cc(Cl)ccc21 [I-65, 5-chloro-3-((5-chloro-2-phenyl-1H-indol-1-yl)sulfonyl)pyridin-2(1H)-one] was tested, and the IC50 was 500 to 20000 nM. O=C(O)c1cc2cc(Cl)ccc2n1S(=O)(=O)c1cc(Cl)cc(Cl)c1O [I-66] was tested, and the IC50 was 500 to 20000 nM. O=C(O)c1ccc2cc(-c3ccccc3)n(S(=O)(=O)c3cc(Br)cc(Cl)c3O)c2c1 [I-67] showed an IC50 of 500 to 20000 nM. With O=C(O)c1cccc2c1cc(-c1ccccc1)n2S(=O)(=O)c1cc(Cl)cc(Br)c1 [I-68] the IC50 was 500 to 20000 nM. For O=C(O)c1ccc2cc(-c3ccccc3)n(S(=O)(=O)c3cc(Cl)cc(Br)c3)c2c1 [I-69], the IC50 was 500 to 20000 nM. COC(=O)c1ccc2cc(-c3ccccc3)n(S(=O)(=O)c3cc(Br)cc(Cl)c3O)c2c1 [I-70] gave an IC50 of 500 to 20000 nM. O=C(O)c1sccc1S(=O)(=O)n1c(-c2ccccc2)cc2cc(Cl)ccc21 [I-71] showed an IC50 of 500 to 20000 nM. With O=C(c1cc2cc(Cl)ccc2n1S(=O)(=O)c1cc(Cl)cc(Cl)c1O)N1CCCCC1 [I-72] the IC50 was 500 to 20000 nM. Work on O=C(O)c1cc(Cl)c(O)c(S(=O)(=O)n2c(-c3ccccc3)cc3cc(Cl)ccc32)c1 [I-73] yielded an IC50 of 500 to 20000 nM. Work on N#Cc1ccc2c(c1)cc(-c1cn[nH]c1)n2S(=O)(=O)c1cc(F)cc(F)c1O [I-74] yielded an IC50 of 500 to 20000 nM. Work on N#Cc1ccc2c(c1)cc(-c1cccc(F)c1)n2S(=O)(=O)c1cc(F)cc(F)c1O [I-75] yielded an IC50 of 500 to 20000 nM. Compound O=S(=O)(c1cc(F)ccc1O)n1c(-c2ccccc2)cc2cc(Cl)ccc21 [I-76] has an IC50 of 500 to 20000 nM. Compound N#Cc1ccc2c(c1)cc(-c1ccccc1)n2S(=O)(=O)c1cc(F)cc(F)c1O [I-77] has an IC50 of 500 to 20000 nM. Work on N#Cc1cc(Cl)c(O)c(S(=O)(=O)n2c(-c3ccccc3)cc3cc(Cl)ccc32)c1 [I-78] yielded an IC50 of 500 to 20000 nM. With NC(=O)c1cc(Cl)c(O)c(S(=O)(=O)n2c(-c3ccccc3)cc3cc(Cl)ccc32)c1 [I-79] the IC50 was 500 to 20000 nM.

— patent US11492341B2, “ACLY inhibitors and uses thereof” (Nimbus Artemis, Inc., priority 2018, dated 2022)
